Reference: ChEMBL document CHEMBL1151585, “Aryl phosphate derivates of AZT inhibit HIV replication in cells where the nucleoside is poorly active” (Bioorg Med Chem Lett, 1992)

Columns and labels:
[1] = system: JM1; experiment: Effective dose of compound that decreases antigen production in HIV-1 infected JM cells to 50% of control; format: functional; conditions: Homo sapiens, read-out: ED50 (the source's name)
[2] = Toxic dose of compound which causes 50% cytotoxicity towards HIV-1 uninfected JM cells; format: toxicity, cell-based, JM1; conditions: human, read-out: TD50 (the source's name)

| Structure (SMILES) | EC50 [1] [µM] | CC50 [2] [µM] |
| --- | --- | --- |
| Cc1cn([C@H]2C[C@H](N=[N+]=[N-])[C@@H](CO)O2)c(=O)[nH]c1=O [ZIDOVUDINE] | 100 | > 1000 |
| COC(=O)CNP(=O)(OCC1OC(n2cc(C)c(=O)[nH]c2=O)CC1N=[N+]=[N-])Oc1ccccc1 (stereo not drawn) | 100 | 1000 |
| COC(=O)[C@H](C)NP(=O)(OC[C@H]1O[C@@H](n2cc(C)c(=O)[nH]c2=O)C[C@@H]1N=[N+]=[N-])Oc1ccccc1 (stereo partly drawn) | 0.8 | 500 |
| COC(=O)C(Cc1ccccc1)NP(=O)(OCC1OC(n2cc(C)c(=O)[nH]c2=O)CC1N=[N+]=[N-])Oc1ccccc1 (stereo not drawn) | 1.6 | 100 |
| COC(=O)C(CC(C)C)NP(=O)(OCC1OC(n2cc(C)c(=O)[nH]c2=O)CC1N=[N+]=[N-])Oc1ccccc1 (stereo not drawn) | 8 | 80 |
| COC(=O)C(C)NP(=O)(OCC1OC(n2cc(C)c(=O)[nH]c2=O)CC1N=[N+]=[N-])Oc1ccc(OC)cc1 (stereo not drawn) | 0.8 | 100 |

Continued, in another order:

| EC50 [1] [µM] | Structure (SMILES) | CC50 [2] [µM] |
| --- | --- | --- |
| 0.4 | CCc1ccc(OP(=O)(NC(C)C(=O)OC)OCC2OC(n3cc(C)c(=O)[nH]c3=O)CC2N=[N+]=[N-])cc1 (stereo not drawn) | 40 |
| 0.32 | COC(=O)C(C)NP(=O)(OCC1OC(n2cc(C)c(=O)[nH]c2=O)CC1N=[N+]=[N-])Oc1ccc(F)cc1 (stereo not drawn) | > 200 |
| 40 | COC(=O)C(C)NP(=O)(OCC1OC(n2cc(C)c(=O)[nH]c2=O)CC1N=[N+]=[N-])Oc1ccc([N+](=O)[O-])cc1 (stereo not drawn) | 300 |
